Reference: patent US20140248634A1, “VIMENTIN AS A BIOMARKER FOR THE PROGRESSION OF MYELOPROLIFERATIVE NEOPLASMS” (University of Florida Research Foundation, priority 2011, published 2014)
“Also recorded” adds a separate entry of the source. Starred links: 1 amine or outer side, 2 acyl side, 3 side chain; linkers in the order of their positions; H or OH if unused. Non-standard residues stand in square brackets, D forms with d. Residues, ends and D or L forms follow the SMILES beside them. *: point of attachment. hPhe = N[C@@H](CCc1ccccc1)C(=O)O; Morpholide = C1CN(*)CCO1; Cbz = O=C(OCc1ccccc1)*; CO = O=C([*:1])[*:2]; CH2F = FC*

Columns and labels:
vimentin [1] = assay: Western blotting of HEL cell lysates with anti-vimentin antibody; format: cell-based, human; conditions: HEL cells; for effect on full-length vimentin, Jak2 vs non-Jak2 inhibitors: increasing concentrations; for cleavage of vimentin intermediate filaments in the viability samples: 30 μM G6 or 2% IDPN, 0, 6, 12, 24 or 48 hours
Description: Protein concentrations in the whole cell lysates were determined using a Bradford assay (Bio-Rad). Cell lysates were then resuspended in SDS sample buffer. Whole cell lysates (˜30 μg) were separated by SDS-PAGE and then transferred onto nitrocellulose membranes for analysis by western blotting.
(§1) Nitrocellulose membranes were first blocked with 5% milk/TBST solution at room temperature and then probed first with the different indicated primary antibodies overnight at 4° C. followed by the respective secondary antibodies (1:4000, GE Healthcare). The immuno-reactive bands were then visualized using the enhanced chemiluminescence system (Western Lightning Ultra, Perkin-Elmer). The following antibodies were used at the indicated dilutions: vimentin (Abcam and BD Biosciences, each at 1:500), STAT1 (Santa Cruz Biotechnology, 1:1000), and β-actin (Cell Signaling, 1:500).

caspase 3/7 = conditions: HEL cells, previously showed (15); cited from earlier work
vimentin [2] = assay: 2-D differential in gel electrophoresis (2-D DIGE) of HEL cell proteins; format: cell-based, human; conditions: HEL cells, 25 μM, 12 hours, vs 0.25% DMSO
Description: HEL cells treated either with vehicle control DMSO or 25 μM G6 for 12 hours. The cell pellets were resuspended in ice cold buffer containing 0.3% SDS, 20 mM Tris pH 8.0, 100 mM DTT, 10 μl protease inhibitor cocktail III (Calbiochem), 5 mM MgCl2 and 250 units of benzonase. The cell suspension was homogenized by sonication. Protein was precipitated with 9 volumes of ice cold 10% trichloroacetic acid (TCA) in acetone overnight at 4° C. Precipitated proteins were then dissolved in solubilization buffer (7 M urea, 2 M thiourea, 4% CHAPS, 0.2% SDS and 20 mM Tris, pH 8.0). After centrifugation at 43,000 rpm for 30 min, solubilized protein in the supernatant was quantified using the EZQ Protein Assay Kit (Invitrogen). Proteins (100 μg per sample) were minimally labeled with CyDye (GE Healthcare) as per the manufacturer's protocol. An internal standard, which is loaded on every gel, was created by mixing equal amounts of protein from all samples. Proteins from the DMSO treated samples were labeled with Cy3 (green) and the G6 treated samples were labeled with Cy5 (red). The internal standard was labeled with Cy2 (blue). […] The digital image was then analyzed with DeCyder 2D version 7.0 GE Healthcare). Information from replicate gels was analyzed with BVA Module (Biological Variation Analysis). […]

HEL cells = assay: Cell proliferation assay (trypan blue exclusion, hemocytometer); format: cell-based, human; conditions: 30 μM G6 or 2% IDPN, 0, 6, 12, 24 or 48 hours, vs DMSO
Description: HEL cells were plated in 96-well plates and treated with either 0.25% DMSO, 30 μM G6 or 2% IDPN for the indicated periods of time. Cell viability was then assessed for each sample by trypan blue exclusion staining and hemocytometer.

vimentin protein = assay: Xenograft model of Jak2-V617F expressing HEL cells in NOD/SCID mice, bone marrow anti-vimentin immunohistochemistry; format: in vivo; conditions: NOD/SCID mice with HEL cells, 21 days
Excerpt: The xenograft model of Jak2-V617F expressing HEL cells in NOD/SCID mice has been described previously (15). Briefly, 3 months old NOD/SCID mice were randomized into 5 groups (n=6 per group). […] All other groups received a single tail vein injection of 2×10^6 Jak2-V617F positive HEL cells. Three weeks after HEL cell injection, the mice developed symptoms of a fully penetrant bone marrow malignancy. The mice then began receiving intraperitoneal injections of either vehicle control (DMSO) or G6 at doses of 0.1, 1, and 10 mg/kg/day for the next 21 days. At the end of the three week treatment period, all groups of mice were euthanized and bone marrow tissues were fixed in 10% neutral-buffered formalin and embedded in paraffin.
Paraffin embedded bone marrow sections from each treatment group were analyzed by antivimentin immunohistochemistry. Antigen retrieval was carried out first by microwaving at 95° C. for 20 min in 1 mM EDTA-NaOH solution, pH 8.0. The section were then cooled, blocked with Protein Block (DAKO), and incubated with antivimentin antibody (Abcam, 1:100) for 2 hours at room temperature. Antigen-antibody comeplexes were detected using biotinylated secondary antibodies and streptavidin-peroxidase substrate (DAKO). Stained sections were then analyzed via a standard light microscope (Nikon) at 40× and 100× magnifications.

[3] = system: Jak2-V617F-mediated HEL cell proliferation; conditions: previously demonstrated (14,15); cited from earlier work
[4] = system: vimentin intermediate filaments; assay: Indirect immunofluorescence of vimentin in HEL cells; format: cell-based, human; conditions: 25 μM, 24 and 36 hr
Description: HEL cells were cultured in RPMI in 100 mm dishes and treated with 25 μM G6 for the indicated periods of time. Following treatment, the cells were centrifuged, washed and resuspended in 1×PBS. Cells were then plated onto poly-L-lysine coated 8-chamber slides (Santa Cruz Biotechnology) and fixed at −20° C. in a mixture of 50% methanol and 50% acetone for 10 minutes. The fixed cells were then permeabilized with 0.2% Triton X-100 and blocked with 5% goat serum for 30 minutes at room temperature. The samples were then incubated overnight at 4° C. with a primary antibody of mouse anti-vimentin (BD Biosciences, 1:100). The next day, the cells were washed 4× with PBS at room temperature. The samples were then incubated with a FITC-conjugated anti-mouse secondary antibody (Santa Cruz Biotechnology) for one hour at room temperature. The cells were again washed with PBS, mounted with UltraCruz DAPI containing mounting media (Santa Cruz Biotechnology) and sealed with a cover slip. These cells were imaged using a 100× objective on an inverted fluorescence microscope (Olympus).

PARP = assay: Western blotting of HEL cell lysates for PARP cleavage; format: cell-based, human; conditions: HEL cells, pretreated 4 hours, then 30 μM and 60 μM G6 for 24 hours
Description: Cells (˜107) were washed with two volumes of ice-cold PBS and then lysed in 0.8 ml of ice-cold RIPA buffer (20 mM Tris pH 7.5, 10% glycerol, 1% Triton X-100, 1% deoxycholic acid, 0.1% SDS, 2.5 mM EDTA, 50 mM NaF, 10 mM Na4P2O7, 4 mM benzamidine, and 10 μg/mL aprotinin). Protein concentrations in the whole cell lysates were determined using a Bradford assay (Bio-Rad). Cell lysates were then resuspended in SDS sample buffer. Whole cell lysates (˜30 μg) were separated by SDS-PAGE and then transferred onto nitrocellulose membranes for analysis by western blotting.
as §1

N#C/C(=C/c1ccc(O)c(O)c1)C(=O)NCc1ccccc1 [AG490]
effect on full-length vimentin, Jak2 vs non-Jak2 inhibitors (vimentin [1]; 24 hours): induced cleavage of vimentin dose-dependently

CC(=O)OCOC(=O)CN(CC(=O)OCOC(C)=O)c1ccccc1OCCOc1ccccc1N(CC(=O)OCOC(C)=O)CC(=O)OCOC(C)=O [BAPTA-AM]
effect of pretreatment on G6-induced cleavage of vimentin (vimentin [1]; 10 μM BAPTA-AM 2 hours, then 30 μM G6 for 24 hours): sufficient to protect vimentin from G6-induced cleavage

CC(C)[C@H](NC(=O)N1CCOCC1)C(=O)N[C@@H](CCc1ccccc1)C(=O)CF [Calpain Inhibitor V, Mu-Val-HPh-CH2F] ({Morpholide-CO}-Val-[hPhe]-CH2F)
effect of pretreatment on G6-induced cleavage of vimentin (vimentin [1]; calpain inhibitor pretreatment 4 hours, then increasing doses of G6 for 24 hours): prevented G6-induced cleavage of vimentin in a dose-dependent manner

CNc1ccc2oc(C[C@H]3O[C@@]4(CC[C@H]3C)O[C@H]([C@H](C)C(=O)c3ccc[nH]3)[C@H](C)C[C@H]4C)nc2c1C(=O)O [Compound A23187]
cleavage of vimentin (vimentin [1]; 10 μM, increasing periods of time): sufficient to induce cleavage of intermediate filament protein vimentin

CCC(=C(CC)c1ccc(O)c(CN(CC)CC)c1)c1ccc(O)c(CN(CC)CC)c1 [Compound G6, 4,4′-(hex-3-ene-3,4-diyl)bis(2-((diethylamino)methyl)phenol)]
caspase 3/7 activation (caspase 3/7): causes caspase 3/7 activation in a time-dependent manner | full-length vimentin (western blot) (vimentin [1]; 25 μM, 24 h, vs DMSO): disappearance of full-length vimentin | cleavage of full-length vimentin as a function of time (vimentin [1]; 25 μM, varying lengths of time): cleaved into low molecular weight fragments | cleavage of vimentin intermediate filaments in the viability samples (vimentin [1]): time-dependent cleavage of vimentin intermediate filaments | effect on full-length vimentin, Jak2 vs non-Jak2 inhibitors (vimentin [1]; 24 hours): induced cleavage of vimentin dose-dependently | cleavage of full-length vimentin as a function of dose (vimentin [1]; increasing doses, 24 hours): cleaved into low molecular weight fragments | specificity for vimentin over other cytoskeletal proteins (β-actin reprobe) (vimentin [1]; same samples reprobed with anti-β-actin antibody): specificity of G6 for vimentin over other cytoskeletal proteins such as β-actin | vimentin protein expression (2-D DIGE) (vimentin [2]): down regulated; also recorded: significantly downregulated | viable cell numbers (HEL cells): time dependently decreased viable cell numbers | bone marrow vimentin protein level vs DMSO treated mice (vimentin protein; 0.1 mg/kg/day intraperitoneal): did not produce any observable change | bone marrow vimentin protein level vs DMSO treated mice (vimentin protein; 1 mg/kg/day intraperitoneal): clearly reduced the levels of vimentin protein | bone marrow vimentin protein level vs DMSO treated mice (vimentin protein; 10 mg/kg/day intraperitoneal): clearly reduced the levels of vimentin protein | Jak2-V617F-mediated HEL cell proliferation [3]: inhibits Jak2-V617F-mediated HEL cell proliferation | apoptosis of HEL cells [3]: induces apoptosis | cellular distribution of vimentin [4]: aggregated/localized in the perinuclear region of the cell

N#CCCNCCC#N [IDPN, 3′,3′-iminodipropiontrile, reference compound]
cleavage of vimentin intermediate filaments in the viability samples (vimentin [1]): time-dependent cleavage of vimentin intermediate filaments | viable cell numbers (HEL cells): time dependently decreased viable cell numbers

COc1cccc(-c2cc(=O)c3ccccc3o2)c1N [PD98059]
effect on full-length vimentin, Jak2 vs non-Jak2 inhibitors (vimentin [1]; 24 hours): no effect on full-length vimentin

CC(C)(C)n1nc(-c2ccc(Cl)cc2)c2c(N)ncnc21 [PP2]
effect on full-length vimentin, Jak2 vs non-Jak2 inhibitors (vimentin [1]; 24 hours): no effect on full-length vimentin

C[C@@H]1C[C@@H]([C@H](O)CC2CC(=O)NC(=O)C2)C(=O)[C@@H](C)C1 [cycloheximide]
effect of pretreatment on G6-induced cleavage of vimentin (vimentin [1]; cycloheximide pretreatment 4 h, then increasing concentrations of G6 for 24 hours): not be blocked by pretreatment with cycloheximide

COC(=O)C[C@H](NC(=O)[C@H](C)NC(=O)[C@@H](NC(=O)OCc1ccccc1)C(C)C)C(=O)CF [zVAD-fmk, Z-VAD (OMe)-FMK] (Cbz-Val-Ala-Asp(OMe)-CH2F)
effect of pretreatment on G6-induced cleavage of vimentin (vimentin [1]; pretreated 4 hours, then 30 μM and 60 μM G6 for 24 hours): unable to prevent G6-induced cleavage of vimentin | effect of pretreatment on G6-induced cleavage of PARP (PARP): able to block the G6-induced cleavage of PARP

Jak Inhibitor I
effect on full-length vimentin, Jak2 vs non-Jak2 inhibitors (vimentin [1]; 24 hours): induced cleavage of vimentin dose-dependently
